Source: PubChem BioAssay AID2060901 (Molecular Pharmacology Branch, DTP, NCI, 2025)
pIC50: −log10 of the molar value.

System: 422866-222-R5-J1-PDC complex spheroids viability
Assay: Anticancer human tumor 422866-222-R5-J1-PDC patient-derived pancreatic adenocarcinoma cell line growth inhibition [RAS]
Settings: for pIC50: curve of first compound; for viability, T/C: stronger effect = lower value; active = viability on the fitted dose curve at most 10% of control; inactive = the rest
In short: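 Tumour cells grown as complex spheroids with HUVEC endothelial cells and mesenchymal stem cells, treated with RAS pathway inhibitor combinations. Each agent spans half-log steps from near clinical Cmax, or 10 microM where Cmax is unknown.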

[1] = second compound 0.000949 µM, first compound 0.0316 µM
[2] = second compound 0.000949 µM, first compound 0.1 µM
[3] = second compound 0.000949 µM, first compound 0.316 µM
[4] = second compound 0.000949 µM, first compound 1 µM
[5] = second compound 0.000949 µM, first compound 3.16 µM
[6] = second compound 0.000949 µM, first compound 10 µM
[7] = second compound 0.003 µM, first compound 0.0316 µM
[8] = second compound 0.003 µM, first compound 0.1 µM
[9] = second compound 0.003 µM, first compound 0.316 µM
[10] = second compound 0.003 µM, first compound 1 µM
[11] = second compound 0.003 µM, first compound 3.16 µM
[12] = second compound 0.003 µM, first compound 10 µM
[13] = second compound 0.00949 µM, first compound 0.0316 µM
[14] = second compound 0.00949 µM, first compound 0.1 µM
[15] = second compound 0.00949 µM, first compound 0.316 µM
[16] = second compound 0.00949 µM, first compound 1 µM
[17] = second compound 0.00949 µM, first compound 3.16 µM
[18] = second compound 0.00949 µM, first compound 10 µM
[19] = second compound 0.03 µM, first compound 0.0316 µM
[20] = second compound 0.03 µM, first compound 0.1 µM
[21] = second compound 0.03 µM, first compound 0.316 µM
[22] = second compound 0.03 µM, first compound 1 µM
[23] = second compound 0.03 µM, first compound 3.16 µM
[24] = second compound 0.03 µM, first compound 10 µM
[25] = second compound 0.0949 µM, first compound 0.0316 µM
[26] = second compound 0.0949 µM, first compound 0.1 µM
[27] = second compound 0.0949 µM, first compound 0.316 µM
[28] = second compound 0.0949 µM, first compound 1 µM
[29] = second compound 0.0949 µM, first compound 3.16 µM
[30] = second compound 0.0949 µM, first compound 10 µM
[31] = second compound 0.3 µM, first compound 0.0316 µM
[32] = second compound 0.3 µM, first compound 0.1 µM
[33] = second compound 0.3 µM, first compound 0.316 µM
[34] = second compound 0.3 µM, first compound 1 µM
[35] = second compound 0.3 µM, first compound 3.16 µM
[36] = second compound 0.3 µM, first compound 10 µM
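Also: spheroids exposed to compounds for 7 days.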
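For viability, T/C in this document: 100% = DMSO vehicle control viability.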

CC(C)NCC(C(=O)N1CCN(c2ncnc3c2C(C)CC3O)CC1)c1ccc(Cl)cc1 (stereo not drawn) + CCn1c(-c2cc(N3CCN(C)CC3)cnc2C(C)OC)c2c3cc(ccc31)-c1csc(n1)CC(NC(=O)C1CC1C)C(=O)N1CCCC(N1)C(=O)OCC(C)(C)C2
inactive: viability, T/C [1] 29.7% | viability, T/C [2] 25.9% | viability, T/C [3] 20.5% | viability, T/C [4] 21.1% | viability, T/C [5] 27.7% | viability, T/C [6] 33.9% | viability, T/C [7] 25.2% | viability, T/C [8] 20.6% | viability, T/C [9] 17.4% | viability, T/C [10] 13.4% | viability, T/C [11] 17.8% | viability, T/C [12] 17.7% | viability, T/C [13] 20.4% | viability, T/C [14] 15.2% | viability, T/C [15] 14.7% | viability, T/C [16] 11.6% | viability, T/C [17] 14.1% | viability, T/C [18] 15.7% | viability, T/C [19] 20.1% | viability, T/C [20] 15.8% | viability, T/C [21] 14.9% | viability, T/C [22] 11.9% | viability, T/C [23] 11.9% | viability, T/C [24] 13.8% | viability, T/C [25] 16.5% | viability, T/C [26] 17.4% | viability, T/C [27] 13.1% | viability, T/C [28] 11.7% | viability, T/C [29] 12.4% | viability, T/C [30] 13.8% | viability, T/C [31] 18.8% | viability, T/C [32] 19.6% | viability, T/C [33] 14.2% | viability, T/C [34] 11.5% | viability, T/C [35] 12.9% | viability, T/C [36] 13.8%
> 7.50: pIC50 (second compound 0.000949 µM) | pIC50 (second compound 0.003 µM) | pIC50 (second compound 0.00949 µM) | pIC50 (second compound 0.03 µM) | pIC50 (second compound 0.0949 µM) | pIC50 (second compound 0.3 µM)

CC(C)n1nc(-c2ccc3oc(N)nc3c2)c2c(N)ncnc21 + CCn1c(-c2cc(N3CCN(C)CC3)cnc2C(C)OC)c2c3cc(ccc31)-c1csc(n1)CC(NC(=O)C1CC1C)C(=O)N1CCCC(N1)C(=O)OCC(C)(C)C2
> 9.50: pIC50 (second compound 0.000949 µM) | pIC50 (second compound 0.003 µM) | pIC50 (second compound 0.00949 µM) | pIC50 (second compound 0.03 µM) | pIC50 (second compound 0.0949 µM) | pIC50 (second compound 0.3 µM)
inactive: viability, T/C (second compound 0.000949 µM, first compound 0.000316 µM) 35.2% | viability, T/C (second compound 0.000949 µM, first compound 0.001 µM) 28.7% | viability, T/C (second compound 0.000949 µM, first compound 0.00316 µM) 24.4% | viability, T/C (second compound 0.000949 µM, first compound 0.01 µM) 24.5% | viability, T/C [1] 19.7% | viability, T/C [2] 21% | viability, T/C (second compound 0.003 µM, first compound 0.000316 µM) 24.4% | viability, T/C (second compound 0.003 µM, first compound 0.001 µM) 22.4% | viability, T/C (second compound 0.003 µM, first compound 0.00316 µM) 19.5% | viability, T/C (second compound 0.003 µM, first compound 0.01 µM) 17% | viability, T/C [7] 14.3% | viability, T/C [8] 14.4% | viability, T/C (second compound 0.00949 µM, first compound 0.000316 µM) 22.5% | viability, T/C (second compound 0.00949 µM, first compound 0.001 µM) 16.5% | viability, T/C (second compound 0.00949 µM, first compound 0.00316 µM) 17.8% | viability, T/C (second compound 0.00949 µM, first compound 0.01 µM) 14.2% | viability, T/C [13] 13.8% | viability, T/C [14] 11.2% | viability, T/C (second compound 0.03 µM, first compound 0.000316 µM) 19.3% | viability, T/C (second compound 0.03 µM, first compound 0.001 µM) 16.1% | viability, T/C (second compound 0.03 µM, first compound 0.00316 µM) 19.1% | viability, T/C (second compound 0.03 µM, first compound 0.01 µM) 15.7% | viability, T/C [19] 11.6% | viability, T/C (second compound 0.0949 µM, first compound 0.000316 µM) 17.7% | viability, T/C (second compound 0.0949 µM, first compound 0.001 µM) 20.1% | viability, T/C (second compound 0.0949 µM, first compound 0.00316 µM) 18.3% | viability, T/C (second compound 0.0949 µM, first compound 0.01 µM) 14.2% | viability, T/C [25] 12.2% | viability, T/C [26] 10.9% | viability, T/C (second compound 0.3 µM, first compound 0.000316 µM) 19.7% | viability, T/C (second compound 0.3 µM, first compound 0.001 µM) 21.3% | viability, T/C (second compound 0.3 µM, first compound 0.00316 µM) 20.5% | viability, T/C (second compound 0.3 µM, first compound 0.01 µM) 16.4% | viability, T/C [31] 14.5% | viability, T/C [32] 10.9%
active: viability, T/C [20] 8.47%

CC(Nc1ccc2c(c1)OCCn1cc(N3C(=O)OCC3C(F)F)nc1-2)C(N)=O (stereo not drawn) + CCn1c(-c2cc(N3CCN(C)CC3)cnc2C(C)OC)c2c3cc(ccc31)-c1csc(n1)CC(NC(=O)C1CC1C)C(=O)N1CCCC(N1)C(=O)OCC(C)(C)C2
active: viability, T/C [6] 10.7% | viability, T/C [10] 8.16% | viability, T/C [11] 6.87% | viability, T/C [12] 5.82% | viability, T/C [15] 9.35% | viability, T/C [16] 6.74% | viability, T/C [17] 5.6% | viability, T/C [18] 4.57% | viability, T/C [21] 9.06% | viability, T/C [22] 6.27% | viability, T/C [23] 5.7% | viability, T/C [24] 4.35% | viability, T/C [27] 8.62% | viability, T/C [28] 6.05% | viability, T/C [29] 5.83% | viability, T/C [30] 4.73% | viability, T/C [33] 10.2% | viability, T/C [34] 6.6% | viability, T/C [35] 5.26% | viability, T/C [36] 4.96%
> 7.50: pIC50 (second compound 0.000949 µM) | pIC50 (second compound 0.003 µM) | pIC50 (second compound 0.00949 µM) | pIC50 (second compound 0.03 µM) | pIC50 (second compound 0.0949 µM) | pIC50 (second compound 0.3 µM)
inactive: viability, T/C [1] 24.6% | viability, T/C [2] 19% | viability, T/C [3] 13% | viability, T/C [4] 11.9% | viability, T/C [5] 9.45% | viability, T/C [7] 16.9% | viability, T/C [8] 14.2% | viability, T/C [9] 9.14% | viability, T/C [13] 16.1% | viability, T/C [14] 12.1% | viability, T/C [19] 13.4% | viability, T/C [20] 11.8% | viability, T/C [25] 15.5% | viability, T/C [26] 12.1% | viability, T/C [31] 13.9% | viability, T/C [32] 11.8%

C[C@@H](NC(=O)c1ncnc(N)c1Cl)c1ncc(C(=O)Nc2cc(C(F)(F)F)c(Cl)cn2)s1 + CCn1c(-c2cc(N3CCN(C)CC3)cnc2C(C)OC)c2c3cc(ccc31)-c1csc(n1)CC(NC(=O)C1CC1C)C(=O)N1CCCC(N1)C(=O)OCC(C)(C)C2
> 7.50: pIC50 (second compound 0.000949 µM) | pIC50 (second compound 0.003 µM) | pIC50 (second compound 0.00949 µM) | pIC50 (second compound 0.03 µM) | pIC50 (second compound 0.0949 µM) | pIC50 (second compound 0.3 µM)
inactive: viability, T/C [1] 33.8% | viability, T/C [2] 40.3% | viability, T/C [3] 33.5% | viability, T/C [4] 36.9% | viability, T/C [5] 39.1% | viability, T/C [6] 37.2% | viability, T/C [7] 24.8% | viability, T/C [8] 26.4% | viability, T/C [9] 26.2% | viability, T/C [10] 25.8% | viability, T/C [11] 26.1% | viability, T/C [12] 30.1% | viability, T/C [13] 21% | viability, T/C [14] 20.3% | viability, T/C [15] 21.1% | viability, T/C [16] 22.2% | viability, T/C [17] 24.3% | viability, T/C [18] 24.3% | viability, T/C [19] 20.4% | viability, T/C [20] 19.8% | viability, T/C [21] 20.8% | viability, T/C [22] 23.8% | viability, T/C [23] 24.1% | viability, T/C [24] 22.2% | viability, T/C [25] 21.3% | viability, T/C [26] 20.6% | viability, T/C [27] 21.1% | viability, T/C [28] 19.9% | viability, T/C [29] 23.1% | viability, T/C [30] 24.3% | viability, T/C [31] 19.5% | viability, T/C [32] 20.2% | viability, T/C [33] 21.4% | viability, T/C [34] 20.9% | viability, T/C [35] 22.6% | viability, T/C [36] 24.8%
